Assay results from the supplement of paper PMC6045584.
± gives the standard deviation of the averaged measurements.

Tests used:
[1] = compound: CC[C@@H](C(=O)[C@@H](C)[C@@H](O)[C@H](C)[C@@H]1O[C@@H]([C@@H](CC)C(=O)O)CC[C@@H]1C)[C@H]1O[C@]2(C=C[C@@H](O)[C@]3(CC[C@@](C)([C@H]4CC[C@](O)(CC)[C@H](C)O4)O3)O2)[C@H](C)C[C@@H]1C [SALINOMYCIN]; assay: surviving fraction relative to DMSO-only wells; higher = less growth inhibition; conditions: exposure time: 5 days
Procedure, shortened: (§1)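 Inhibitors were tested at 0.5, 1, 5, 10, 50, 100, 500 and 1000 nM, applied continuously for five days beginning 24 hours after log-phase tumour cells were seeded at 250–500 per well in 384-well plates. CellTiter-Glo luminescence served as the viability measure, expressed as surviving fraction against the median of DMSO-only wells. Each line, screened three times, was kept only with replicate Pearson r >0.7 and median Z' >0.3.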

[2] = compound: O=c1[nH]cc(F)c(=O)[nH]1 [FLUOROURACIL]; assay: as above; conditions: exposure time: 5 days
Procedure, shortened: as §1

Test System | surviving fraction ([1]; 0.5 nM) | surviving fraction ([1]; 1 nM) | surviving fraction ([1]; 5 nM) | surviving fraction ([1]; 10 nM) | surviving fraction ([1]; 50 nM) | surviving fraction ([1]; 100 nM) | surviving fraction ([1]; 500 nM) | surviving fraction ([1]; 1000 nM) | surviving fraction ([2]; 0.5 nM) | surviving fraction ([2]; 1 nM) | surviving fraction ([2]; 5 nM) | surviving fraction ([2]; 10 nM) | surviving fraction ([2]; 50 nM) | surviving fraction ([2]; 100 nM) | surviving fraction ([2]; 500 nM) | surviving fraction ([2]; 1000 nM)
22RV1 PROSTATE | 1.01 ± 0.075 | 0.987 ± 0.053 | 1 ± 0.06 | 0.942 ± 0.059 | 0.817 ± 0.031 | 0.448 ± 0.038 | 0.195 ± 0.021 | 0.125 ± 0.015 | 1.07 ± 0.11 | 0.936 ± 0.068 | 1.1 ± 0.11 | 0.946 ± 0.13 | 1.09 ± 0.053 | 1.104 ± 0.011 | 0.957 ± 0.15 | 0.705 ± 0.18
93VU HEADNECK | 0.887 ± 0.048 | 0.885 ± 0.11 | 1.01 ± 0.04 | 1.05 ± 0.023 | 0.976 ± 0.08 | 0.91 ± 0.053 | 0.304 ± 0.041 | 0.177 ± 0.005 | 1.01 ± 0.11 | 1 ± 0.052 | 1.07 ± 0.089 | 1.05 ± 0.11 | 0.884 ± 0.082 | 0.884 ± 0.0072 | 0.665 ± 0.062 | 0.882 ± 0.063
143B BONE | 0.98 ± 0.044 | 0.99 ± 0.026 | 1.02 ± 0.023 | 1.01 ± 0.027 | 1.03 ± 0.018 | 1.03 ± 0.035 | 0.9815 ± 0.00071 | 0.763 ± 0.028 | 1.12 ± 0.15 | 1.11 ± 0.079 | 1.14 ± 0.11 | 1.11 ± 0.094 | 1.14 ± 0.17 | 1.12 ± 0.13 | 1.1 ± 0.12 | 0.929 ± 0.029
A549 LUNG | 0.944 ± 0.028 | 0.9123 ± 0.005 | 0.95 ± 0.033 | 0.907 ± 0.022 | 1.03 ± 0.028 | 0.97 ± 0.03 | 0.729 ± 0.018 | 0.528 ± 0.033 | 1.093 ± 0.0015 | 1.055 ± 0.007 | 1.051 ± 0.001 | 1.04 ± 0.032 | 1.11 ± 0.019 | 1.029 ± 0.0045 | 1.05 ± 0.025 | 0.554 ± 0.046
ASKA SYNOVIAL | 1.05 ± 0.088 | 0.926 ± 0.086 | 1.02 ± 0.1 | 0.582 ± 0.048 | 1.14 ± 0.034 | 1.03 ± 0.016 | 0.797 ± 0.073 | 0.441 ± 0.037 | 1.1 ± 0.072 | 1.06 ± 0.081 | 1.17 ± 0.021 | 1.04 ± 0.024 | 1.01 ± 0.05 | 0.937 ± 0.066 | 0.919 ± 0.068 | 0.775 ± 0.042
BT20 BREAST | 0.964 ± 0.16 | 1.05 ± 0.14 | 1.12 ± 0.076 | 1.3 ± 0.25 | 1.32 ± 0.19 | 1.19 ± 0.25 | 1.22 ± 0.31 | 1.13 ± 0.3 | 1.15 ± 0.11 | 1.18 ± 0.11 | 1.25 ± 0.058 | 1.16 ± 0.07 | 0.844 ± 0.079 | 0.836 ± 0.049 | 1.09 ± 0.049 | 0.929 ± 0.1
BT549 BREAST | 0.999 ± 0.033 | 1.18 ± 0.079 | 1.02 ± 0.056 | 0.93 ± 0.031 | 0.891 ± 0.35 | 0.73 ± 0.39 | 0.523 ± 0.2 | 0.341 ± 0.079 | 1.07 ± 0.13 | 1.06 ± 0.024 | 1.05 ± 0.21 | 0.95 ± 0.12 | 0.8 ± 0.06 | 0.843 ± 0.15 | 0.872 ± 0.084 | 0.585 ± 0.071
C33A CERVIX | 0.812 ± 0.13 | 0.769 ± 0.16 | 1 ± 0.12 | 1.05 ± 0.21 | 1.08 ± 0.035 | 1.08 ± 0.13 | 0.328 ± 0.024 | 0.25 ± 0.0067 | 1 ± 0.086 | 1.12 ± 0.043 | 1.08 ± 0.11 | 1.16 ± 0.05 | 1.1 ± 0.055 | 1.1 ± 0.06 | 1.02 ± 0.085 | 1.28 ± 0.055
CADOES1 SOFT TISSUE | 0.978 ± 0.096 | 0.959 ± 0.036 | 0.838 ± 0.14 | 0.918 ± 0.15 | 0.856 ± 0.041 | 0.454 ± 0.1 | 0.147 ± 0.0061 | 0.105 ± 0.004 | 0.969 ± 0.035 | 0.925 ± 0.057 | 0.907 ± 0.13 | 0.963 ± 0.097 | 0.968 ± 0.03 | 0.912 ± 0.098 | 0.905 ± 0.055 | 0.775 ± 0.081
CAL51 BREAST | 0.937 ± 0.041 | 0.86 ± 0.12 | 0.984 ± 0.018 | 0.969 ± 0.021 | 1 ± 0.017 | 0.972 ± 0.034 | 0.615 ± 0.022 | 0.359 ± 0.018 | 0.931 ± 0.016 | 0.918 ± 0.09 | 0.944 ± 0.048 | 0.971 ± 0.016 | 1 ± 0.057 | 0.904 ± 0.017 | 0.915 ± 0.015 | 0.763 ± 0.018
CAL72 BONE | 1.05 ± 0.037 | 1.02 ± 0.044 | 1.04 ± 0.018 | 1.06 ± 0.027 | 1.11 ± 0.021 | 1.1 ± 0.049 | 0.647 ± 0.087 | 0.564 ± 0.031 | 1.07 ± 0.014 | 1.056 ± 0.0093 | 1.03 ± 0.051 | 1.05 ± 0.039 | 1.02 ± 0.037 | 0.944 ± 0.093 | 0.955 ± 0.16 | 0.751 ± 0.16
CAL120 BREAST | 0.8885 ± 0.0083 | 0.893 ± 0.0056 | 0.877 ± 0.021 | 0.8868 ± 0.0073 | 0.661 ± 0.01 | 0.334 ± 0.015 | 0.088 ± 0.0061 | 0.0535 ± 0.0022 | 0.986 ± 0.039 | 0.991 ± 0.041 | 0.989 ± 0.034 | 0.979 ± 0.069 | 0.967 ± 0.015 | 0.938 ± 0.032 | 0.983 ± 0.043 | 0.803 ± 0.024
CASKI CERVIX | 0.93 ± 0.055 | 0.921 ± 0.039 | 0.868 ± 0.037 | 0.911 ± 0.038 | 0.703 ± 0.0027 | 0.583 ± 0.028 | 0.3273 ± 0.0031 | 0.289 ± 0.024 | 0.957 ± 0.037 | 0.928 ± 0.045 | 0.935 ± 0.04 | 0.941 ± 0.068 | 0.92 ± 0.046 | 0.916 ± 0.066 | 0.801 ± 0.045 | 0.555 ± 0.033
CHLA90 AUTONOMIC GANGLIA | 0.992 ± 0.017 | 0.9167 ± 0.0091 | 0.926 ± 0.014 | 0.396 ± 0.01 | 0.949 ± 0.069 | 0.877 ± 0.048 | 0.169 ± 0.028 | 0.0267 ± 0.00058 | 0.951 ± 0.021 | 0.946 ± 0.043 | 0.939 ± 0.059 | 1 ± 0.13 | 1.07 ± 0.054 | 1.04 ± 0.084 | 0.91 ± 0.12 | 0.886 ± 0.09
CME SYNOVIAL | 1.12 ± 0.14 | 0.826 ± 0.031 | 1.06 ± 0.15 | 0.177 ± 0.069 | 1.14 ± 0.07 | 0.947 ± 0.094 | 0.351 ± 0.018 | 0.141 ± 0.0067 | 1.35 ± 0.12 | 1.26 ± 0.024 | 1.27 ± 0.032 | 1.21 ± 0.036 | 1.02 ± 0.1 | 1.03 ± 0.1 | 0.931 ± 0.15 | 0.554 ± 0.017
COLO320DM LARGE INTESTINE | 1.05 ± 0.037 | 1.04 ± 0.036 | 1.11 ± 0.026 | 0.522 ± 0.056 | 1.14 ± 0.12 | 0.966 ± 0.081 | 0.388 ± 0.0066 | 0.1 ± 0.006 | 1.07 ± 0.14 | 1.06 ± 0.051 | 1.09 ± 0.019 | 1.05 ± 0.1 | 0.988 ± 0.083 | 0.863 ± 0.053 | 0.492 ± 0.035 | 0.347 ± 0.023
DU4475 BREAST | 0.949 ± 0.23 | 0.893 ± 0.28 | 0.857 ± 0.28 | 0.9 ± 0.33 | 0.793 ± 0.27 | 0.665 ± 0.32 | 0.293 ± 0.18 | 0.17 ± 0.078 | 0.972 ± 0.062 | 1.06 ± 0.068 | 0.934 ± 0.12 | 1.13 ± 0.12 | 1.01 ± 0.16 | 0.987 ± 0.27 | 1.06 ± 0.081 | 0.939 ± 0.1
